The term solubility denotes how much of the substance goes into solution per volume. In general, IC50 refers to the concentration that gives 50% inhibition.

Structures are written as SMILES. Converted amounts (≈) assume the structure as drawn. Some results are limits rather than exact numbers.

Data set [1] in a line: Determining the solubility (saturated solution in McIlvaine buffer pH 7.4, UV spectroscopy). In kind it is physicochemical. Particulars: pH 7.4, aqueous buffer, thermodynamic from solid, shaken 2 hours, 0.75 mg solid in 0.75 ml. The procedure, abridged: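 Excess solid (0.75 mg per 0.75 ml) shaken 2 h in McIlvaine buffer pH 7.4, then filtered through 0.45 μm PTFE membrane with first drops discarded. Dissolved amount measured by UV spectroscopy.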

Another data set deals with cytochrome P450 2C9 (Homo sapiens, UniProt P11712). In words: Determining the cyp2C9 activity (O-demethylation of [O-methyl-14C]-naproxen). In kind it is in vitro ADME. Particulars: human recombinant cytochrome P450 2C9; 37° C.; <0.4 μM when inhibition >50% at lowest concentration; read-out: CYP 2C9 IC50. The gist of the method:
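Recombinant CYP2C9 (40 pmol/ml) with 80 μM [O-methyl-14C]-naproxen in 0.1 M Tris, 5 mM MgCl2; test compound at 50, 10, 2 and 0.4 μM in duplicate. Started with 1 mM NADPH, stopped after 15 min with TCA; 14C-formaldehyde separated by solid-phase extraction and counted by scintillation. IC50 from least-squares fit.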

The next data set addresses p38 MAP-kinase (Homo sapiens, UniProt Q16539). In words: p38 MAP-kinase enzymatic assay (phosphorylation of GST-tagged ATF2, chemoluminescence). In kind it is biochemical. Particulars: inhibitor concentration 1 μM; activated p38 MAP-kinase 1 nM; ATP 100 μM; read-out: p38 (% Inh @ 1 μM). The gist of the method:
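Activated p38 MAP-kinase (1 nM) preincubated 4 h at ambient temperature with 1 μM compound in HEPES pH 7, MgCl2, DTT, TWEEN20, then reacted 1 h with 10 nM GST-ATF2 and 100 μM ATP. Phospho-ATF2 detected by AlphaScreen-type bead luminescence; percent inhibition at 1 μM versus uninhibited and kinase-free controls.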

Sequence of cytochrome P450 2C9 (P11712 whole entry): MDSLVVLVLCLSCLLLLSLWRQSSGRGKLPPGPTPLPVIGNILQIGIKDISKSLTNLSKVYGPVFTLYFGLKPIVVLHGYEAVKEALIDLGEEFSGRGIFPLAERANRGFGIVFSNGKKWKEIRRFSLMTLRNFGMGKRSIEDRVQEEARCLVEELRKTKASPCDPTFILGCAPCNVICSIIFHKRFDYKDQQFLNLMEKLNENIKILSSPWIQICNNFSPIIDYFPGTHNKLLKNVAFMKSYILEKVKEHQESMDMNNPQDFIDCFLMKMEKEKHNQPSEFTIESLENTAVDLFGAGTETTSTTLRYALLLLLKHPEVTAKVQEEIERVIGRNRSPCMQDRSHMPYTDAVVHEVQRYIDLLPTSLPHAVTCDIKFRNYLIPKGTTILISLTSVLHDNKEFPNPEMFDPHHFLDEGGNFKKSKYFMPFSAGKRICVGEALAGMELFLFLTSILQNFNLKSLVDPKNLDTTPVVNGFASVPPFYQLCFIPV
Sequence of p38 MAP-kinase (Q16539 whole entry): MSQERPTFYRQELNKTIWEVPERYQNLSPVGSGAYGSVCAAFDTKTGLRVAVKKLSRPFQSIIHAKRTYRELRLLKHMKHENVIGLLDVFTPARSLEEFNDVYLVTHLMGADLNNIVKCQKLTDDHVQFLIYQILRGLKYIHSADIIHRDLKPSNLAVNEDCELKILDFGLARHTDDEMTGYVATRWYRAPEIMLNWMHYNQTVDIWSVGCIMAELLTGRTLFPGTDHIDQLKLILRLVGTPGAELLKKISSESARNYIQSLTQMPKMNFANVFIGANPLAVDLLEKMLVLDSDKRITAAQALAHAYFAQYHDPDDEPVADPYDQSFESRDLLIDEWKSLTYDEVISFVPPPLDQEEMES

With `CCNC(=O)c1cc(C(C)(C)C)cc(NC(=O)c2cc3cccc(CN4CCN(C(=O)[C@@H]5CCCN5C)CC4)c3n2C)c1OC` [10(2), (S)-1-methyl-7-[4-(1-methyl-pyrrolidine-2-carbonyl)-piperazin-1-ylmethyl]-1H-indole-2-carboxylic acid-(5-tert-butyl-3-ethylcarbamoyl-2-methoxy-phenyl)-amide], in data set [1], the concentration in solution (solubility at 2 h) was 390 µg/mL (≈ 632 µM). Also, at cytochrome P450 2C9, the IC50 is 460 nM. For the same compound, the inhibition at 1 µM at p38 MAP-kinase stood at 99.4%.
`CNC(=O)c1cc(C(C)(C)C)cc(NC(=O)c2cc3cccc(CN4CCN(C(=O)[C@@H]5CCCN5C)CC4)c3n2C)c1OC` [10(3), (S)-1-methyl-7-[4-(1-methyl-pyrrolidine-2-carbonyl)-piperazin-1-ylmethyl]-1H-indole-2-carboxylic acid-(5-tert-butyl-2-methoxy-3-methylcarbamoyl-phenyl)-amide]: the solubility at 2 h in data set [1] was determined as 590 µg/mL (≈ 979 µM). For the same compound, the IC50 at cytochrome P450 2C9 was 1600 nM. Besides, the inhibition at 1 µM at p38 MAP-kinase came to 99.3%.
The corresponding values for `COc1c(NC(=O)c2cc3cccc(CN4CCN(C(=O)[C@@H]5CCCN5C)CC4)c3n2C)cc(C(C)(C)C)cc1C(N)=O` [10(4), (S)-1-methyl-7-[4-(1-methyl-pyrrolidine-2-carbonyl)-piperazin-1-ylmethyl]-1H-indole-2-carboxylic acid-(5-tert-butyl-3-carbamoyl-2-methoxy-phenyl)-amide] are 370 µg/mL (≈ 628 µM), 440 nM and 99.1%.
Regarding `CCC(C)c1cc(NC(=O)c2cc3cccc(CN4CCN(C(=O)[C@@H]5CCCN5C)CC4)c3n2C)c(OC)c(NS(C)(=O)=O)c1` (stereo partly drawn) [11(1), 1-methyl-7-[4-((2S)-1-methyl-pyrrolidine-2-carbonyl)-piperazin-1-ylmethyl]-1H-indole-2-carboxylic acid-(5-sec-butyl-3-methanesulphonylamino-2-methoxy-phenyl)-amide], the solubility at 2 h in data set [1] was above 1000 µg/mL. In addition, on cytochrome P450 2C9, the IC50 is 2650 nM. In addition, the inhibition at 1 µM on p38 MAP-kinase came to 13.2%.
Compound `COc1c(NC(=O)c2cc3cccc(CN4CCN(C(=O)[C@@H]5CCCN5C)CC4)c3n2C)cc(C(C)C)cc1NS(C)(=O)=O` [11(2), (S)-1-methyl-7-[4-(1-methyl-pyrrolidine-2-carbonyl)-piperazin-1-ylmethyl]-1H-indole-2-carboxylic acid-(5-isopropyl-3-methanesulphonylamino-2-methoxy-phenyl)-amide] registered a solubility at 2 h in data set [1] above 1000 µg/mL. For the same compound, the IC50 at cytochrome P450 2C9 was determined as 10400 nM. For the same compound, the inhibition at 1 µM at p38 MAP-kinase amounted to 18%.
Regarding `COc1c(NC(=O)c2cc3cccc(CN4CCN(C(=O)[C@@H]5CCCN5C)CC4)c3n2C)cc(C(C)(C)C)cc1S(C)(=O)=O` [11(4), (S)-1-methyl-7-[4-(1-methyl-pyrrolidine-2-carbonyl)-piperazin-1-ylmethyl]-1H-indole-2-carboxylic acid-(5-tert-butyl-3-methanesulphonyl-2-methoxy-phenyl)-amide], the concentration in solution in data set [1] (solubility at 2 h) was 43 µg/mL (≈ 68.9 µM). Further, the IC50 at cytochrome P450 2C9 turned out to be 460 nM. In addition, at p38 MAP-kinase, the inhibition at 1 µM was 99.5%.
For the compound `COc1c(CS(C)(=O)=O)cc(C(C)(C)C)cc1NC(=O)c1cc2cccc(CN3CCN(C(=O)[C@@H]4CCCN4C)CC3)c2n1C` [11(5), (S)-1-methyl-7-[4-(1-methyl-pyrrolidine-2-carbonyl)-piperazin-1-ylmethyl]-1H-indole-2-carboxylic acid-(5-tert-butyl-3-methanesulphonylmethyl-2-methoxy-phenyl)-amide], the solubility at 2 h in data set [1] amounted to 53 µg/mL (≈ 83.1 µM). Further, the IC50 on cytochrome P450 2C9 is 2340 nM. Moreover, on p38 MAP-kinase, the inhibition at 1 µM turned out to be 99.6%.
As for `COc1c(C[S+](C)[O-])cc(C(C)(C)C)cc1NC(=O)c1cc2cccc(CN3CCN(C(=O)[C@@H]4CCCN4C)CC3)c2n1C` (stereo partly drawn) [11(6), 1-methyl-7-[4-((2S)-1-methyl-pyrrolidine-2-carbonyl)-piperazin-1-ylmethyl]-1H-indole-2-carboxylic acid-(5-tert-butyl-3-methanesulphinylmethyl-2-methoxy-phenyl)-amide], the concentration in solution in data set [1] (solubility at 2 h) was 680 µg/mL (≈ 1090 µM). The IC50 at cytochrome P450 2C9 amounted to 3180 nM. Moreover, at p38 MAP-kinase, the inhibition at 1 µM was 99.6%.
With `CCOc1c(NC(=O)c2cc3cccc(CN4CCN(C(=O)[C@@H]5CCCN5C)CC4)c3n2C)cc(C(C)(C)C)cc1NS(C)(=O)=O` [11(7), (S)-1-methyl-7-[4-(1-methyl-pyrrolidine-2-carbonyl)-piperazin-1-ylmethyl]-1H-indole-2-carboxylic acid-(5-tert-butyl-3-methanesulphonylamino-2-ethoxy-phenyl)-amide], the solubility at 2 h in data set [1] came to 110 µg/mL (≈ 168 µM). For the same compound, the IC50 on cytochrome P450 2C9 was determined as 410 nM. Besides, the inhibition at 1 µM on p38 MAP-kinase turned out to be 99.3%.
For `CCCC(=O)Nc1cc(C(C)(C)C)cc(NC(=O)c2cc3cccc(CN4CCN(C(=O)[C@@H]5CCCN5C)CC4)c3n2C)c1OC` [12(1), (S)-1-methyl-7-[4-(1-methyl-pyrrolidine-2-carbonyl)-piperazin-1-ylmethyl]-1H-indole-2-carboxylic acid-(5-tert-butyl-3-butyrylamino-2-methoxy-phenyl)-amide] the same measures were 44 µg/mL (≈ 69.7 µM), 960 nM and 87.7%.
`COc1c(NC(C)=O)cc(C(C)(C)C)cc1NC(=O)c1cc2cccc(CN3CCN(C(=O)[C@@H]4CCCN4C)CC3)c2n1C` [12(2), (S)-1-methyl-7-[4-(1-methyl-pyrrolidine-2-carbonyl)-piperazin-1-ylmethyl]-1H-indole-2-carboxylic acid-(3-acetylamino-5-tert-butyl-2-methoxy-phenyl)-amide] yielded a solubility at 2 h in data set [1] of 630 µg/mL (≈ 1050 µM). For the same compound, the IC50 at cytochrome P450 2C9 came to 3460 nM. Further, at p38 MAP-kinase, the inhibition at 1 µM turned out to be 98.2%.
In data set [1], `COc1c(NC(=O)c2cc3cccc(CN4CCN(C(=O)[C@@H]5CCCN5C)CC4)c3n2C)cc(C(C)(C)C)cc1NC(=O)C(C)C` [12(3), (S)-1-methyl-7-[4-(1-methyl-pyrrolidine-2-carbonyl)-piperazin-1-ylmethyl]-1H-indole-2-carboxylic acid-(5-tert-butyl-3-isobutyrylamino-2-methoxy-phenyl)-amide] displayed a solubility at 2 h of 91 µg/mL (≈ 144 µM). Moreover, the concentration for half-maximal inhibition (IC50) on cytochrome P450 2C9 was 2150 nM. Moreover, the inhibition at 1 µM at p38 MAP-kinase is 97.3%.
In the case of `COc1c(NC(=O)c2cc3cccc(CN4CCN(C(=O)[C@@H]5CCCN5C)CC4)c3n2C)cc(C(C)(C)C)cc1NC(=O)C1CC1` [12(4), (S)-1-methyl-7-[4-(1-methyl-pyrrolidine-2-carbonyl)-piperazin-1-ylmethyl]-1H-indole-2-carboxylic acid-[5-tert-butyl-3-(cyclopropanecarbonyl-amino)-2-methoxy-phenyl]-amide], in data set [1], the solubility at 2 h came to 59 µg/mL (≈ 93.8 µM). At cytochrome P450 2C9, the IC50 came to 650 nM. Moreover, on p38 MAP-kinase, the inhibition at 1 µM was determined as 96.4%.
Take `COc1c(NC(=O)c2cc3cccc(CN4CCN(C(=O)[C@@H]5CCCN5C)CC4)c3n2C)cc(C(C)(C)C)cc1NS(=O)(=O)C1CC1` [13(1), (S)-1-methyl-7-[4-(1-methyl-pyrrolidine-2-carbonyl)-piperazin-1-ylmethyl]-1H-indole-2-carboxylic acid-(5-tert-butyl-3-cyclopropanesulphonylamino-2-methoxy-phenyl)-amide]: in data set [1], the concentration in solution (solubility at 2 h) was 12 µg/mL (≈ 18 µM). Moreover, on cytochrome P450 2C9, the 50% inhibitory concentration (IC50) amounted to 670 nM. The inhibition at 1 µM on p38 MAP-kinase was 99.3%.
In turn, `COc1c(NC(=O)c2cc3cccc(CN4CCN(C(=O)[C@@H]5CCCN5C)CC4)c3n2C)cc(C(F)(F)F)cc1NS(C)(=O)=O` [14(1), (S)-1-methyl-7-[4-(1-methyl-pyrrolidine-2-carbonyl)-piperazin-1-ylmethyl]-1H-indole-2-carboxylic acid-(3-methanesulphonylamino-2-methoxy-5-trifluoromethyl-phenyl)-amide] had a solubility at 2 h in data set [1] of 97 µg/mL (≈ 149 µM). For the same compound, at cytochrome P450 2C9, the IC50 was 5270 nM. Also, on p38 MAP-kinase, the inhibition at 1 µM was 97.9%.
On to `COc1c(NC(=O)c2cc3cccc(CN4CCN(C(=O)C5CCN(C)CC5)CC4)c3n2C)cc(C(C)(C)C)cc1NS(C)(=O)=O` [Example 1, 1-methyl-7-[4-(1-methyl-piperidine-4-carbonyl)-piperazin-1-ylmethyl]-1H-indole-2-carboxylic acid(5-tert-butyl-3-methanesulphonylamino-2-methoxy-phenyl)-amide], for which, in data set [1], the concentration in solution (solubility at 2 h) came to 360 µg/mL (≈ 551 µM). Further, on cytochrome P450 2C9, the IC50 worked out at 2420 nM. Also, the inhibition at 1 µM at p38 MAP-kinase is 98.9%.
Turning to `COc1c(NC(=O)c2cc3cccc(CN4CCN(C(=O)N5CC[C@@H](N(C)C)C5)CC4)c3n2C)cc(C(C)(C)C)cc1NS(C)(=O)=O` [Example 2, (R)-7-[4-(3-dimethylamino-pyrrolidine-1-carbonyl)-piperazin-1-ylmethyl]-1-methyl-1H-indole-2-carboxylic acid(5-tert-butyl-3-methanesulohonylamino-2-methoxy-phenyl)-amide], the solubility at 2 h in data set [1] came out at 10 µg/mL (≈ 15 µM). Besides, at cytochrome P450 2C9, the IC50 was 1290 nM. Besides, the inhibition at 1 µM on p38 MAP-kinase turned out to be 99.1%.
Turning to `COc1c(NC(=O)c2cc3cccc(CN4CCN(C(=O)C5CNC5)CC4)c3n2C)cc(C(C)(C)C)cc1NS(C)(=O)=O` [Example 3, 7-[4-(azetidine-3-carbonyl)-piperazin-1-ylmethyl]-1-methyl-1H-indole-2-carboxylic acid (5-tert-butyl-3-methanesulphonylamino-2-methoxy-phenyl)-amide], in data set [1], the solubility at 2 h was found to be 85 µg/mL (≈ 139 µM). For the same compound, the IC50 on cytochrome P450 2C9 was found to be 1260 nM. In addition, the inhibition at 1 µM at p38 MAP-kinase is 99%.

Source of the values: patent US8686022B2, “7-(piperazine-1-ymethyl)-1H-indole-2-carboxylic acid (phenyl)-amide derivatives and allied compounds as p38 MAP kinase inhibitors for the treatment of respiratory diseases” (Boehringer Ingelheim International GmbH, priority 2008, dated 2014).
